Where two headings read alike, the source gives them in different places.
Assay: Plasma exposure (dried blood spot) after single oral dose
Assay type: in vivo
Conditions: male, Sprague Dawley, rat, whole blood (dried blood spot), po
Procedure: Male Sprague Dawley rats at 6 to 7 weeks were dosed orally by p.o. gavage with different doses of BTTQ formulated in 1% hydroxyethlycellulose (Dow Corning, Midland, MI, United States) (w/v), 0.25% polysorbate 80 (Sigma-Aldrich, St. Louis, MO, United States) (v/v), and 0.05% antifoam (v/v; Dow Corning, Midland, MI, United States) in purified water. Following dosing, ear temperature was measured by using a k-type thermocouple probe digital thermometer (Cole Parmer) every hour for 6 h and then at 24 h. Blood samples for plasma exposure measurement were obtained at the same time. Blood was collected via a tail snip directly into a 20-μL EDTA-coated capillary and immediately spotted onto a Whatman DMPK-C DBS card (GE Healthcare Bio-Sciences). Tail snips were performed by removing approximately 1 mm of the tail by using a scalpel. Blood flow was initiated by gentle squeezing of the tail. No analgesia or anesthesia was used during blood collections. A single sample and spot were collected per time point. The DBS cards were allowed to dry for approximately 2 h at room temperature, after which the cards were placed in a zip-top bag, stored, and shipped at ambient temperature.

[1] = 1 mg/kg, oral 1 mg/kg, FU 0.053, read-out: Unbound Concentration, individual animals
[2] = 1 mg/kg, oral 1 mg/kg, dried blood spot, read-out: Concentration, Mean
[3] = 1 mg/kg, oral 1 mg/kg, dried blood spot, read-out: Concentration, individual animals
[4] = 1 mg/kg, oral 1 mg/kg, FU 0.053, read-out: Unbound Concentration, Mean
[5] = 3 mg/kg, oral 3 mg/kg, FU 0.053, read-out: Unbound Concentration, Mean
[6] = 3 mg/kg, oral 3 mg/kg, FU 0.053, read-out: Unbound Concentration, individual animals
[7] = 3 mg/kg, oral 3 mg/kg, dried blood spot, read-out: Concentration, Mean
[8] = 3 mg/kg, oral 3 mg/kg, dried blood spot, read-out: Concentration, individual animals

- concentration at 2 h [1]: 88.5 nM
- concentration at 2 h [2]: 1650 nM
- concentration at 2 h [3]: 1670 nM
- concentration at 3 h [4]: 62.1 nM
- concentration at 3 h [1]: 64.1 nM
- concentration at 3 h [2]: 1170 nM
- concentration at 3 h [3]: 1210 nM
- concentration at 4 h [4]: 57.3 nM
- concentration at 4 h [1]: 47.7 nM
- concentration at 4 h [2]: 1080 nM
- concentration at 4 h [3]: 900 nM
- concentration at 5 h [4]: 49.6 nM
- concentration at 5 h [1]: 41.1 nM
- concentration at 5 h [2]: 935 nM
- concentration at 5 h [3]: 775 nM
- concentration at 6 h [4]: 41.3 nM
- concentration at 6 h [1]: 41.3 nM
- concentration at 6 h [2]: 780 nM
- concentration at 6 h [3]: 779 nM
- concentration at 24 h [4]: 2.13 nM
- concentration at 24 h [2]: 40.2 nM
- concentration at 1 h [5]: 197 nM
- concentration at 1 h [6]: 142 nM
- concentration at 1 h [7]: 3710 nM
- concentration at 1 h [8]: 2670 nM
- concentration at 2 h [5]: 195 nM
- concentration at 2 h [6]: 166 nM
- concentration at 2 h [7]: 3690 nM
- concentration at 2 h [8]: 3140 nM
- concentration at 3 h [5]: 168 nM
- concentration at 3 h [6]: 169 nM
- concentration at 3 h [7]: 3170 nM
- concentration at 3 h [8]: 3180 nM
- concentration at 4 h [5]: 148 nM
- concentration at 4 h [6]: 155 nM
- concentration at 4 h [7]: 2790 nM
- concentration at 4 h [8]: 2920 nM
- concentration at 5 h [5]: 115 nM
- concentration at 5 h [6]: 142 nM
Structure (SMILES): O=c1c2nnc(C3(C4CC4)CC3)n2c2c(n1CC1CC1)CCCC2 [BTTQ, 1-[1,1′-bi(cyclopropyl)-1-yl]-5-(cyclopropylmethyl)-6,7,8,9-tetrahydro[1,2,4]triazolo[4,3-A]quinoxaline-4(5H)-one]

Reference: paper PMC7506137, “Selective Phosphodiesterase 1 Inhibitor BTTQ Reduces Blood Pressure in Spontaneously Hypertensive and Dahl Salt Sensitive Rats: Role of Peripheral Vasodilation” (Frontiers in Physiology, 2020)
